# Reference: patent US11945806B2, “Stabilization of amyloidogenic immunoglobulin light chains” (The Scripps Research Institute, priority 2019, dated 2024)
# Target: T1, WIL-FL* (Homo sapiens, UniProt P01721, K101C, form not given)
# Assay: PCFP assay with thermolysin
# Conditions: mean ± sd, n=3; 6.75 μM compound
row,SMILES,Thermolysin activity (%)
1,CC(C=NNc1ccc(S(N)(=O)=O)cc1[N+](=O)[O-])c1ccccc1 (stereo not drawn) [Compound 6],45.1 ± 6.6

# Target: T1, WIL-FL*
# Assay: Protease-coupled fluorescence polarization (PCFP) assay with proteinase K
# Conditions: 10 μM in pilot screen, n=1
row,SMILES,PK activity (%)
1,CC(=O)c1ccn(S(=O)(=O)c2ccccc2)c1 [Compound 17],58.1 (10 μM in pilot screen) %
2,CC(=O)c1ccc(S(=O)(=O)c2ccccc2)cc1 [Compound 18],46.5 (10 μM in pilot screen) %

# Same assay, conditions: Primary screen, n=1, 6.75 μM compound
row,SMILES,PK activity (%)
1,Cc1cc(=O)oc2cc(O)ccc12 [Compound 19],2.27 (Primary screen) %
2,O=c1ccc2ccccc2o1 [Compound 21],2.58 (Primary screen) %

# Same assay, conditions: from dose response curves measured during the screening process
row,SMILES,EC50 [µM]
1,CC(C=NNc1ccc(S(N)(=O)=O)cc1[N+](=O)[O-])c1ccccc1 (stereo not drawn) [Compound 6],4.92
2,CC(=O)c1ccn(S(=O)(=O)c2ccccc2)c1 [Compound 17],18.5
3,CC(=O)c1ccc(S(=O)(=O)c2ccccc2)cc1 [Compound 18],18

# Same assay, conditions: secondary screen, mean ± sd, n=3; 6.75 μM compound; FP retention after 24 h at 22° C., normalized to high and low controls
row,SMILES,PK activity (%)
1,CC(C=NNc1ccc(S(N)(=O)=O)cc1[N+](=O)[O-])c1ccccc1 (stereo not drawn) [Compound 6],60.8 ± 2.7

# Target: WIL-FL (Homo sapiens, UniProt P01721)
# Assay: Unlabeled LC Protease Sensitivity Assay (proteinase K)
# Format: biochemical
# Conditions: small molecule 10 μM, WIL-FL 5 μM, proteinase K 50 nM, 2 hours at 37° C.
# Outline: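 WIL-FL light chain (5 μM) in PBS pH 7.4 + 0.02% Pluronic F-127 digested with proteinase K (50 nM) for 2 h at 37 °C with 10 μM compound (1% DMSO). Intact WIL-FL quantified by size-exclusion UPLC (A280). Fold protection = (A_compound−A_vehicle)/(A_no_protease−A_vehicle) from peak areas.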
row,SMILES,Protection (fold protection of LC from protease)
1,"CCN(CC)c1ccc2c(C)c(CCNC(=O)NCc3ccc(=O)[nH]c3)c(=O)oc2c1 [Compound 286, 1-(2-(7-(diethylamino)-4-methyl-2-oxo-2H-chromen-3-yl)ethyl)-3-((6-oxo-1,6-dihydropyridin-3-yl)methyl)urea]",A (A < 0.3))
2,"CCN(CC)c1ccc2c(C)c(CCNC(=O)NCc3ccnc4ccccc34)c(=O)oc2c1 [Compound 287, 1-(2-(7-(diethylamino)-4-methyl-2-oxo-2H-chromen-3-yl)ethyl)-3-(quinolin-4-ylmethyl)urea]",A (A < 0.3))
3,"CCN(CC)c1ccc2c(C)c(CCNC(=O)NCc3cnc4ccccc4c3)c(=O)oc2c1 [Compound 288, 1-(2-(7-(diethylamino)-4-methyl-2-oxo-2H-chromen-3-yl)ethyl)-3-(quinolin-3-ylmethyl)urea]",B (3 ≤ B < 0.6)
4,"CCN(CC)c1ccc2c(C)c(CCNC(=O)NCc3cncc4ccccc34)c(=O)oc2c1 [Compound 289, 1-(2-(7-(diethylamino)-4-methyl-2-oxo-2H-chromen-3-yl)ethyl)-3-(isoquinolin-4-ylmethyl)urea]",C (C ≥ 0.6)
5,"CCN(CC)c1ccc2c(C)c(CCNC(=O)NCc3nccc4ccccc34)c(=O)oc2c1 [Compound 290, 1-(2-(7-(diethylamino)-4-methyl-2-oxo-2H-chromen-3-yl)ethyl)-3-(isoquinolin-1-ylmethyl)urea]",C (C ≥ 0.6)
6,"CCN(CC)c1ccc2c(C)c(CCNC(=O)NCc3cccc(-c4c[nH]cn4)c3)c(=O)oc2c1 [Compound 291, 1-(3-(1H-imidazol-4-yl)benzyl)-3-(2-(7-(diethylamino)-4-methyl-2-oxo-2H-chromen-3-yl)ethyl)urea]",C (C ≥ 0.6)
7,"CCN(CC)c1ccc2c(C)c(CCNC(=O)NCc3ccc4ccccc4c3)c(=O)oc2c1 [Compound 292, 1-(2-(7-(diethylamino)-4-methyl-2-oxo-2H-chromen-3-yl)ethyl)-3-(naphthalen-2-ylmethyl)urea]",C (C ≥ 0.6)
8,"CCN(CC)c1ccc2c(C)c(CCNC(=O)NCc3ccc4ccccc4n3)c(=O)oc2c1 [Compound 293, 1-(2-(7-(diethylamino)-4-methyl-2-oxo-2H-chromen-3-yl)ethyl)-3-(quinolin-2-ylmethyl)urea]",B (3 ≤ B < 0.6)
9,"CCN(CC)c1ccc2c(C)c(CCNC(=O)NCc3ccncn3)c(=O)oc2c1 [Compound 294, 1-(2-(7-(diethylamino)-4-methyl-2-oxo-2H-chromen-3-yl)ethyl)-3-(pyrimidin-4-ylmethyl)urea]",A (A < 0.3))
10,"CCN(CC)c1ccc2c(C)c(CCNC(=O)NCc3cc4ccccc4cn3)c(=O)oc2c1 [Compound 295, 1-(2-(7-(diethylamino)-4-methyl-2-oxo-2H-chromen-3-yl)ethyl)-3-(isoquinolin-3-ylmethyl)urea]",B (3 ≤ B < 0.6)
11,"CCN(CC)c1ccc2c(C)c(CCNC(=O)NCc3ccc4c(=O)[nH]ccc4c3)c(=O)oc2c1 [Compound 296, 1-(2-(7-(diethylamino)-4-methyl-2-oxo-2H-chromen-3-yl)ethyl)-3-((1-oxo-1,2-dihydroisoquinolin-6-yl)methyl)urea]",B (3 ≤ B < 0.6)
12,"CCN(CC)c1ccc2c(C)c(CCNC(=O)NCc3cc(F)cc(C(=O)O)c3)c(=O)oc2c1 [Compound 297, 3-((3-(2-(7-(diethylamino)-4-methyl-2-oxo-2H-chromen-3-yl)ethyl)ureido)methyl)-5-fluorobenzoic acid]",A (A < 0.3))
13,"CCN(CC)c1ccc2c(C)c(CCNC(=O)NCc3cccc(C(N)=O)c3)c(=O)oc2c1 [Compound 298, 3-((3-(2-(7-(diethylamino)-4-methyl-2-oxo-2H-chromen-3-yl)ethyl)ureido)methyl)benzamide]",B (3 ≤ B < 0.6)
14,"CCN(CC)c1ccc2c(C)c(CCNC(=O)NCc3cccc(S(N)(=O)=O)c3)c(=O)oc2c1 [Compound 299, 3-((3-(2-(7-(diethylamino)-4-methyl-2-oxo-2H-chromen-3-yl)ethyl)ureido)methyl)benzenesulfonamide]",B (3 ≤ B < 0.6)
15,"CCN(CC)c1ccc2c(CCCOC(=O)NCc3ccccc3)cc(=O)oc2c1 [Compound 300, 3-(7-(diethylamino)-2-oxo-2H-chromen-4-yl)propyl benzylcarbamate]",A (A < 0.3))
16,"CCN(CC)c1ccc2c(CCCOC(=O)NCc3ccncc3)cc(=O)oc2c1 [Compound 301, 3-(7-(diethylamino)-2-oxo-2H-chromen-4-yl)propyl (pyridin-4-ylmethyl)carbamate]",A (A < 0.3))
17,"CCN(CC)c1ccc2c(CCCOC(=O)NCc3cccc(C(N)=O)c3)cc(=O)oc2c1 [Compound 302, 3-(7-(diethylamino)-2-oxo-2H-chromen-4-yl)propyl (3-carbamoylbenzyl)carbamate]",A (A < 0.3))
18,"CCN(CC)c1ccc2c(CCCOC(=O)NCc3cccc(S(N)(=O)=O)c3)cc(=O)oc2c1 [Compound 303, 3-(7-(diethylamino)-2-oxo-2H-chromen-4-yl)propyl (3-sulfamoylbenzyl)carbamate]",A (A < 0.3))
19,"CCN(CC)c1ccc2c(CCCOC(=O)NCc3cccc(-c4c[nH]cn4)c3)cc(=O)oc2c1 [Compound 304, 3-(7-(diethylamino)-2-oxo-2H-chromen-4-yl)propyl (3-(1H-imidazol-4-yl)benzyl)carbamate]",A (A < 0.3))
20,"CCN(CC)c1ccc2c(CCCOC(=O)NCc3cccc(CCC(=O)O)c3)cc(=O)oc2c1 [Compound 305, 3-(3-((((3-(7-(diethylamino)-2-oxo-2H-chromen-4-yl)propoxy)carbonyl)amino)methyl)phenyl)propanoic acid]",A (A < 0.3))
21,"CCN(CC)c1ccc2c(CCCOC(=O)NCc3cccc(CCC(=O)OC)c3)cc(=O)oc2c1 [Compound 306, Methyl 3-(3-((((3-(7-(diethylamino)-2-oxo-2H-chromen-4yl)propoxy)carbonyl)amino)methyl)phenyl)propanoate]",A (A < 0.3))
22,"CCN(CC)c1ccc2c(C)c(CCNC(=O)NCc3cccc(CCC(=O)O)c3)c(=O)oc2c1 [Compound 307, 3-(3-((3-(2-(7-(diethylamino)-4-methyl-2-oxo-2H-chromen-3-yl)ethyl)ureido)methyl)phenyl)propanoic acid]",B (3 ≤ B < 0.6)
23,"CCN(CC)c1ccc2c(C)c(CCNC(=O)NCc3cccc(CCC(=O)OC)c3)c(=O)oc2c1 [Compound 308, Methyl 3-(3-((3-(2-(7-(diethylamino)-4-methyl-2-oxo-2H-chromen-3-yl)ethyl)ureido)methyl)phenyl)propanoate]",B (3 ≤ B < 0.6)
24,"CCN(CC)c1ccc2c(C)c(CCOC(=O)NCc3cccc(CCC(=O)O)c3)c(=O)oc2c1 [Compound 309, 3-(3-((((2-(7-(diethylamino)-4-methyl-2-oxo-2H-chromen-3-yl)ethoxy)carbonyl)amino)methyl)phenyl)propanoic acid]",A (A < 0.3))
25,"CCN(CC)c1ccc2c(C)c(CCOC(=O)NCc3cccc(CCC(=O)OC)c3)c(=O)oc2c1 [Compound 310, Methyl 3-(3-((((2-(7-(diethylamino)-4-methyl-2-oxo-2H-chromen-3-yl)ethoxy)carbonyl)amino)methyl)phenyl)propanoate]",A (A < 0.3))
26,"CCN(CC)c1ccc2c(C)c(CCNC(=O)NCc3cccc(OCC(=O)O)c3)c(=O)oc2c1 [Compound 311, 2-(3-((3-(2-(7-(diethylamino)-4-methyl-2-oxo-2H-chromen-3-yl)ethyl)ureido)methyl)phenoxy)acetic acid]",B (3 ≤ B < 0.6)
27,"CCN(CC)c1ccc2c(C)c(CCNC(=O)NCc3cccc(OCC(=O)OC)c3)c(=O)oc2c1 [Compound 312, Methyl 2-(3-((3-(2-(7-(diethylamino)-4-methyl-2-oxo-2H-chromen-3-yl)ethyl)ureido)methyl)phenoxy)acetate]",C (C ≥ 0.6)
